According to ChEMBL document CHEMBL1201862, “PubChem BioAssay data set” (2004):
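Dose response: 5 concentrations. Exposure: 48 h. Format: 96-well plates. Endpoint: linear interpolation; highest concentration if not reached. GI50: concentration for 50% inhibition of growth.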 The source made the active and inactive calls. Cut-off read from the data, not from the text of the source: active = GI50 up to about 1.1 µM and inactive = higher.

Assays:
Assay in all cases: inhibition of tumour cell growth, NCI panel, 48 h
[1] = system: 786-0
[2] = system: A498
[3] = system: A549
[4] = system: ACHN
[5] = system: CAKI-1
[6] = system: CCRF-CEM
[7] = system: COLO 205
[8] = system: DLD-1
[9] = system: DMS-273
[10] = system: EKVX
[11] = system: HCC 2998
[12] = system: HCT-116
[13] = system: HCT-15
[14] = system: HL-60
[15] = system: HOP-18
[16] = system: HOP-62
[17] = system: HOP-92
[18] = system: HT-29
[19] = system: IGROV-1
[20] = system: K562
[21] = system: KM-20L2
[22] = system: KM12
[23] = system: LOX IMVI
[24] = system: LXFL 529
[25] = system: M14
[26] = system: M19-MEL
[27] = system: MOLT-4
[28] = system: Malme-3M
[29] = system: NCI-H23
[30] = system: NCI-H460
[31] = system: OVCAR-3
[32] = system: OVCAR-4
[33] = system: OVCAR-5
[34] = system: OVCAR-8
[35] = system: RPMI-8226
[36] = system: RXF 393
[37] = system: RXF 631
[38] = system: SF-268
[39] = system: SF-295
[40] = system: SF-539
[41] = system: SK-MEL-2
[42] = system: SK-MEL-5
[43] = system: SK-OV-3
[44] = system: SN12C
[45] = system: SNB-19
[46] = system: SNB-75
[47] = system: SNB-78
[48] = system: SW-620
[49] = system: TK-10
[50] = system: U-251
[51] = system: UACC-257
[52] = system: UACC-62
[53] = system: UO-31
[54] = system: XF498
[55] = system: DMS-114
[56] = system: NCI-H226
[57] = system: NCI-H522
[58] = system: SK-MEL-28
[59] = system: SR

For `COC(=O)CSc1ccccc1`, the GI50 [1] was 11.6 µM (inactive), the GI50 [2] was > 100 µM (inactive) and the GI50 [3] was > 100 µM (inactive). For the same compound, the GI50 [4] was > 100 µM (inactive), the GI50 [5] was > 100 µM (inactive) and the GI50 [6] was > 100 µM (inactive). For the same compound, the GI50 [7] was > 100 µM (inactive), the GI50 [8] was > 100 µM (inactive) and the GI50 [9] was > 100 µM (inactive). For the same compound, the GI50 [10] was > 100 µM (inactive), the GI50 [11] was > 100 µM (inactive) and the GI50 [12] was > 100 µM (inactive). For the same compound, the GI50 [13] was greater than 100 µM, the GI50 [14] was > 100 µM (inactive) and the GI50 [15] was > 100 µM (inactive). The GI50 [16] was > 100 µM (inactive), the GI50 [17] was 50.9 µM (inactive) and the GI50 [18] was > 100 µM (inactive). The GI50 [19] was > 100 µM (inactive), the GI50 [20] was > 100 µM (inactive) and the GI50 [21] was > 100 µM (inactive). For the same compound, the GI50 [22] was > 100 µM (inactive), the GI50 [23] was > 100 µM (inactive) and the GI50 [24] was > 100 µM (inactive). For the same compound, the GI50 [25] was > 100 µM (inactive), the GI50 [26] was > 100 µM (inactive) and the GI50 [27] was > 100 µM (inactive). For the same compound, the GI50 [28] was 25.4 µM (inactive), the GI50 [29] was > 100 µM (inactive) and the GI50 [30] was > 100 µM (inactive). The GI50 [31] was > 100 µM (inactive), the GI50 [32] was > 100 µM (inactive) and the GI50 [33] was > 100 µM (inactive). The GI50 [34] was > 100 µM (inactive), the GI50 [35] was > 100 µM (inactive) and the GI50 [36] was > 100 µM (inactive). The GI50 [37] was > 100 µM (inactive), the GI50 [38] was > 100 µM (inactive) and the GI50 [39] was > 100 µM (inactive). The GI50 [40] was > 100 µM (inactive), the GI50 [41] was 11.5 µM (inactive) and the GI50 [42] was > 100 µM (inactive). The GI50 [43] was > 100 µM (inactive), the GI50 [44] was > 100 µM (inactive) and the GI50 [45] was > 100 µM (inactive). The GI50 [46] was > 100 µM (inactive), the GI50 [47] was > 100 µM (inactive) and the GI50 [48] was > 100 µM (inactive). For the same compound, the GI50 [49] was > 100 µM (inactive), the GI50 [50] was > 100 µM (inactive) and the GI50 [51] was > 100 µM (inactive). The GI50 [52] was > 100 µM (inactive), the GI50 [53] was > 100 µM (inactive) and the GI50 [54] was > 100 µM (inactive).
For `CNS(=O)(=O)NNS(=O)(=O)c1ccc(Br)cc1`, the GI50 [1] was 63.1 µM (inactive), the GI50 [2] was > 100 µM (inactive) and the GI50 [3] was > 100 µM (inactive). The GI50 [4] was > 100 µM (inactive), the GI50 [5] was > 100 µM (inactive) and the GI50 [6] was > 100 µM (inactive). For the same compound, the GI50 [7] was > 100 µM (inactive), the GI50 [8] was > 100 µM (inactive) and the GI50 [55] was > 100 µM (inactive). For the same compound, the GI50 [9] was > 100 µM (inactive), the GI50 [10] was > 100 µM (inactive) and the GI50 [11] was > 100 µM (inactive). For the same compound, the GI50 [12] was 99.3 µM (inactive), the GI50 [13] was greater than 100 µM and the GI50 [14] was > 100 µM (inactive). For the same compound, the GI50 [15] was 2.64 µM (inactive), the GI50 [16] was > 100 µM (inactive) and the GI50 [17] was 32.1 µM (inactive). The GI50 [18] was > 100 µM (inactive), the GI50 [19] was > 100 µM (inactive) and the GI50 [20] was > 100 µM (inactive). For the same compound, the GI50 [21] was > 100 µM (inactive), the GI50 [23] was > 100 µM (inactive) and the GI50 [24] was > 100 µM (inactive). For the same compound, the GI50 [25] was > 100 µM (inactive), the GI50 [26] was > 100 µM (inactive) and the GI50 [28] was > 100 µM (inactive). For the same compound, the GI50 [56] was > 100 µM (inactive), the GI50 [29] was > 100 µM (inactive) and the GI50 [30] was 42.7 µM (inactive). For the same compound, the GI50 [57] was > 100 µM (inactive), the GI50 [32] was > 100 µM (inactive) and the GI50 [33] was > 100 µM (inactive). The GI50 [34] was > 100 µM (inactive), the GI50 [35] was > 100 µM (inactive) and the GI50 [36] was > 100 µM (inactive). The GI50 [37] was > 100 µM (inactive), the GI50 [38] was > 100 µM (inactive) and the GI50 [40] was > 100 µM (inactive). The GI50 [58] was > 100 µM (inactive), the GI50 [41] was > 100 µM (inactive) and the GI50 [42] was > 100 µM (inactive). For the same compound, the GI50 [43] was > 100 µM (inactive), the GI50 [45] was 0.309 µM (active) and the GI50 [46] was 47 µM (inactive). For the same compound, the GI50 [47] was > 100 µM (inactive), the GI50 [48] was > 100 µM (inactive) and the GI50 [49] was > 100 µM (inactive). The GI50 [50] was 28.3 µM (inactive), the GI50 [51] was > 100 µM (inactive) and the GI50 [52] was > 100 µM (inactive). For the same compound, the GI50 [53] was 20.6 µM (inactive) and the GI50 [54] was > 100 µM (inactive).
For `O=C(Nc1ccc2[nH]c3c(-c4ccccc4)nccc3c2c1)c1ccccc1[N+](=O)[O-]`, the GI50 [2] was 3.24 µM (inactive), the GI50 [3] was 4.88 µM (inactive) and the GI50 [4] was 3.94 µM (inactive). The GI50 [5] was 5.74 µM (inactive), the GI50 [6] was 5.93 µM (inactive) and the GI50 [7] was 3.45 µM (inactive). The GI50 [55] was 3.74 µM (inactive), the GI50 [9] was 1.76 µM (inactive) and the GI50 [10] was 3.22 µM (inactive). The GI50 [11] was 3.58 µM (inactive), the GI50 [12] was 5.71 µM (inactive) and the GI50 [13] was 1.53 µM. For the same compound, the GI50 [14] was 3.48 µM (inactive), the GI50 [15] was > 100 µM (inactive) and the GI50 [17] was 3.56 µM (inactive). For the same compound, the GI50 [18] was 1.85 µM (inactive), the GI50 [19] was 5.4 µM (inactive) and the GI50 [20] was 4.06 µM (inactive). The GI50 [21] was 1.74 µM (inactive), the GI50 [22] was 3.97 µM (inactive) and the GI50 [23] was 2.92 µM (inactive). For the same compound, the GI50 [24] was 6.52 µM (inactive), the GI50 [25] was 2.99 µM (inactive) and the GI50 [27] was 2.22 µM (inactive). The GI50 [28] was 1.82 µM (inactive), the GI50 [56] was 2.3 µM (inactive) and the GI50 [29] was 4.37 µM (inactive). For the same compound, the GI50 [30] was 3.45 µM (inactive), the GI50 [32] was 36.9 µM (inactive) and the GI50 [33] was 2.17 µM (inactive). For the same compound, the GI50 [34] was 8.11 µM (inactive), the GI50 [35] was 1.61 µM (inactive) and the GI50 [36] was 1.83 µM (inactive). The GI50 [37] was 3.81 µM (inactive), the GI50 [38] was 3.52 µM (inactive) and the GI50 [39] was 1.64 µM (inactive). For the same compound, the GI50 [40] was 1.37 µM (inactive), the GI50 [58] was 4.95 µM (inactive) and the GI50 [41] was 4.09 µM (inactive). The GI50 [44] was 64.6 µM (inactive), the GI50 [45] was 5.58 µM (inactive) and the GI50 [46] was 2.47 µM (inactive). The GI50 [47] was 5.47 µM (inactive), the GI50 [59] was 1.85 µM (inactive) and the GI50 [48] was 5.06 µM (inactive). For the same compound, the GI50 [49] was 4.18 µM (inactive), the GI50 [50] was 2.96 µM (inactive) and the GI50 [51] was 4.11 µM (inactive). For the same compound, the GI50 [54] was 3.59 µM (inactive).
